Measurements published in ChEMBL document CHEMBL1201862, “PubChem BioAssay data set” (2004).
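1) Cells in 96-well plates. 2) Compound, 48 h, 5 concentrations. 3) Linear interpolation between surrounding doses. 4) Unreached endpoint = highest concentration. GI50 marks 50% less growth.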 The source made the active and inactive calls. Rule as the data show it: active = GI50 up to about 1.1 µM and inactive = higher.

Experiments:
Assay in all cases: growth of human tumour cells (NCI), 48 h
HT-29 = system: HT-29
OVCAR-4 = system: OVCAR-4
M14 = system: M14
NCI-H522 = system: NCI-H522
RXF 393 = system: RXF 393
HOP-92 = system: HOP-92
HL-60 = system: HL-60
SF-539 = system: SF-539
HCT-116 = system: HCT-116
HOP-62 = system: HOP-62
SK-OV-3 = system: SK-OV-3
NCI-H460 = system: NCI-H460
MOLT-4 = system: MOLT-4
K562 = system: K562
OVCAR-8 = system: OVCAR-8
HCC 2998 = system: HCC 2998

Measured: GI50

C[n+]1c2ccccc2c(/C=N\NS(=O)(=O)c2ccc(O)c(C(=O)O)c2)c2ccccc21
inactive: HT-29 35.3 µM | OVCAR-4 > 100 µM | M14 64.1 µM | NCI-H522 30.6 µM | RXF 393 32.7 µM | HOP-92 46.7 µM | HL-60 22.1 µM | SF-539 63.4 µM | HCT-116 32.6 µM | HOP-62 > 100 µM | SK-OV-3 > 100 µM | NCI-H460 36.2 µM | MOLT-4 18.5 µM | K562 27.5 µM | OVCAR-8 43.7 µM | HCC 2998 > 100 µM

O=C(c1ccccc1)c1c(-c2ccccc2)sc2nc3ccccc3nc12
inactive: HT-29 > 100 µM | OVCAR-4 37.8 µM | M14 > 100 µM | NCI-H522 > 100 µM | RXF 393 45.4 µM | HOP-92 16.4 µM | HL-60 > 100 µM | SF-539 47.9 µM | HCT-116 > 100 µM | HOP-62 34.8 µM | SK-OV-3 > 100 µM | NCI-H460 > 100 µM | MOLT-4 > 100 µM | K562 > 100 µM | OVCAR-8 > 100 µM | HCC 2998 > 100 µM

N=C(N)NS(=O)(=O)c1ccc(Nc2c3ccccc3nc3c(C(=O)Nc4ccc(S(N)(=O)=O)cc4)cccc23)cc1
inactive: HT-29 > 100 µM | OVCAR-4 > 100 µM | M14 > 100 µM | NCI-H522 15.8 µM | RXF 393 95.3 µM | HOP-92 47.9 µM | HL-60 88.1 µM | SF-539 52.5 µM | HCT-116 > 100 µM | HOP-62 > 100 µM | SK-OV-3 > 100 µM | NCI-H460 > 100 µM | MOLT-4 > 100 µM | K562 33.3 µM | OVCAR-8 > 100 µM | HCC 2998 55.5 µM

O=C1c2ccccc2-c2cccc3ccc(Cc4ccccc4)c1c23
inactive: HT-29 > 100 µM | OVCAR-4 84.3 µM | M14 > 100 µM | NCI-H522 > 100 µM | RXF 393 > 100 µM | HOP-92 > 100 µM | HL-60 > 100 µM | SF-539 > 100 µM | HCT-116 > 100 µM | HOP-62 > 100 µM | NCI-H460 > 100 µM | MOLT-4 > 100 µM | K562 37.6 µM | OVCAR-8 > 100 µM | HCC 2998 > 100 µM

COC(=O)C(=O)C(C#N)c1c(Cl)cccc1Cl (configuration not stated)
inactive: HT-29 > 100 µM | OVCAR-4 > 100 µM | M14 > 100 µM | NCI-H522 > 100 µM | RXF 393 > 100 µM | HOP-92 > 100 µM | HL-60 > 100 µM | SF-539 > 100 µM | HCT-116 > 100 µM | HOP-62 > 100 µM | SK-OV-3 > 100 µM | NCI-H460 > 100 µM | MOLT-4 > 100 µM | K562 > 100 µM | OVCAR-8 > 100 µM

O=C(c1ccccc1)c1oc2ccc(Br)cc2c1-c1cnn(-c2ccccc2)c1
inactive: HT-29 > 100 µM | OVCAR-4 > 100 µM | M14 > 100 µM | NCI-H522 7.48 µM | RXF 393 > 100 µM | HOP-92 > 100 µM | HL-60 > 100 µM | HOP-62 > 100 µM | SK-OV-3 > 100 µM | NCI-H460 > 100 µM | MOLT-4 > 100 µM | K562 > 100 µM | OVCAR-8 > 10 µM | HCC 2998 > 100 µM

ClCCCCOC1CCCCO1 (configuration not stated)
inactive: HT-29 > 100 µM | OVCAR-4 > 100 µM | M14 > 100 µM | NCI-H522 > 100 µM | RXF 393 > 100 µM | HOP-92 > 100 µM | HL-60 > 100 µM | SF-539 > 100 µM | HCT-116 > 100 µM | HOP-62 > 100 µM | SK-OV-3 > 100 µM | NCI-H460 > 100 µM | MOLT-4 > 100 µM | OVCAR-8 > 100 µM | HCC 2998 > 100 µM
